Measurements published in publication PMC7525662, “Preclinical dosimetry models and the prediction of clinical doses of novel positron emission tomography radiotracers” (Scientific Reports, 2020).
Marks after values point to notes of the source that are not given here.

Key:
Parameters in all cases: species or system Sprague–Dawley rats
Details in all cases: rat, in vivo
[1] = Residence times normalised to human organ masses, FBP reconstruction
Method: PET studies were reconstructed using filtered-back projection (FBP) and Mediso’s iterative Tera-Tomo 3D reconstruction algorithm with the following settings: 4 iterations, 6 subsets, full detector model, normal regularization, spike filter on, voxel size 0.4 mm and 400‒600 keV energy window. PET data were corrected for randoms, scatter and attenuation. Time-activity curves for each source organ, whole-body and remainder of the body were plotted. […] Residence times (τ) were determined for each radiotracer in source organs, whole-body and remaining (any activity assigned to the whole-body but not assigned to a source organ). Each preclinical source organ’s τ was determined by calculating the area under its respective time-activity curve (activity normalised to the percentage maximum injected dose as a function of time) using the trapezoid method. […] From each individual animal, eight dosimetry models were constructed from all possible combinations of image reconstruction method (FBP or iterative), τ (non-normalised or normalised to human organ masses), and sex of phantom (male or female). Supplementary table 1. Scaling (normalisation) factors applied to residence times of PET radiotracers in male Sprague-Dawley rats to predict human adult residence times. […] Stabin et al. 2006 ^4); WB: Whole Body.

[2] = OLINDA/EXM predicted clinical doses: adult male phantom, non-normalised τ, FBP
Method: (§1) PET studies were reconstructed using filtered-back projection (FBP) and Mediso’s iterative Tera-Tomo 3D reconstruction algorithm with the following settings: 4 iterations, 6 subsets, full detector model, normal regularization, spike filter on, voxel size 0.4 mm and 400‒600 keV energy window. PET data were corrected for randoms, scatter and attenuation. Time-activity curves for each source organ, whole-body and remainder of the body were plotted. […] Residence times (τ) were determined for each radiotracer in source organs, whole-body and remaining (any activity assigned to the whole-body but not assigned to a source organ). Each preclinical source organ’s τ was determined by calculating the area under its respective time-activity curve (activity normalised to the percentage maximum injected dose as a function of time) using the trapezoid method. […] From each individual animal, eight dosimetry models were constructed from all possible combinations of image reconstruction method (FBP or iterative), τ (non-normalised or normalised to human organ masses), and sex of phantom (male or female).

[3] = OLINDA/EXM predicted clinical doses: adult female phantom, non-normalised τ, FBP
Method: as §1, with “female). Supplementary table 6. Predicted clinical absorbed organ doses and whole-body effective doses of PET radiotracers using non-normalised (preclinical) adult female source organ residence times from filtered backprojection reconstructions.” for “female).”

[4] = OLINDA/EXM predicted clinical doses: adult male phantom, normalised τ, FBP
Method: as §1

[5] = OLINDA/EXM predicted clinical doses: adult male phantom, non-normalised τ, iterative
Method: as §1

Normalised Residence Time (h), Average: Remaining [1]: 2.12 h | Effective Dose (mSv/MBq), Average [2]: 5.79E-02 mSv/MBq | Estimated Absorbed Dose of Organ, Average: Adrenals [2]: 1.22E-02 mGy/MBq | Estimated Absorbed Dose of Organ, Average: Brain [2]: 4.36E-03 mGy/MBq | Estimated Absorbed Dose of Organ, Average: Breasts [2]: 8.62E-03 mGy/MBq | Estimated Absorbed Dose of Organ, Average: Gallbladder Wall [2]: 1.32E-02 mGy/MBq | Estimated Absorbed Dose of Organ, Average: Heart Wall [2]: 1.51E-02 mGy/MBq | Estimated Absorbed Dose of Organ, Average: Kidneys [2]: 2.01E-02§ mGy/MBq | Estimated Absorbed Dose of Organ, Average: LLI Wall [2]: 2.39E-01† mGy/MBq | Estimated Absorbed Dose of Organ, Average: Liver [2]: 8.09E-03 mGy/MBq | Estimated Absorbed Dose of Organ, Average: Lungs [2]: 8.07E-03 mGy/MBq | Estimated Absorbed Dose of Organ, Average: Muscle [2]: 1.35E-02 mGy/MBq | Estimated Absorbed Dose of Organ, Average: Osteogenic Cells [2]: 1.76E-02 mGy/MBq | Estimated Absorbed Dose of Organ, Average: Pancreas [2]: 1.32E-02 mGy/MBq | Estimated Absorbed Dose of Organ, Average: Red Marrow [2]: 1.32E-02 mGy/MBq | Estimated Absorbed Dose of Organ, Average: Skin [2]: 9.20E-03 mGy/MBq | Estimated Absorbed Dose of Organ, Average: Small Intestine [2]: 2.21E-02 mGy/MBq | Estimated Absorbed Dose of Organ, Average: Spleen [2]: 1.23E-02 mGy/MBq | Estimated Absorbed Dose of Organ, Average: Stomach Wall [2]: 1.34E-02 mGy/MBq | Estimated Absorbed Dose of Organ, Average: Testes [2]: 1.76E-02 mGy/MBq | Estimated Absorbed Dose of Organ, Average: Thymus [2]: 1.07E-02 mGy/MBq | Estimated Absorbed Dose of Organ, Average: Thyroid [2]: 1.05E-02 mGy/MBq | Estimated Absorbed Dose of Organ, Average: Total Body [2]: 1.38E-02 mGy/MBq | Estimated Absorbed Dose of Organ, Average: ULI Wall [2]: 1.76E-02 mGy/MBq | Estimated Absorbed Dose of Organ, Average: Urinary Bladder Wall [2]: 3.23E-01‡ mGy/MBq | Effective Dose (mSv/MBq), Average ± SD [3]: 7.08E-02 mSv/MBq | Estimated Absorbed Dose of Organ, Average: Adrenals [3]: 1.56E-02 mGy/MBq | Estimated Absorbed Dose of Organ, Average: Brain [3]: 5.39E-03 mGy/MBq | Estimated Absorbed Dose of Organ, Average: Breasts [3]: 1.10E-02 mGy/MBq | Estimated Absorbed Dose of Organ, Average: Gallbladder Wall [3]: 1.59E-02 mGy/MBq | Estimated Absorbed Dose of Organ, Average: Heart Wall [3]: 1.95E-02 mGy/MBq | Estimated Absorbed Dose of Organ, Average: Kidneys [3]: 2.28E-02 § mGy/MBq | Estimated Absorbed Dose of Organ, Average: LLI Wall [3]: 2.63E-01 † mGy/MBq | Estimated Absorbed Dose of Organ, Average: Liver [3]: 1.05E-02 mGy/MBq | Estimated Absorbed Dose of Organ, Average: Lungs [3]: 1.03E-02 mGy/MBq | Estimated Absorbed Dose of Organ, Average: Muscle [3]: 1.67E-02 mGy/MBq | Estimated Absorbed Dose of Organ, Average: Osteogenic Cells [3]: 2.29E-02 mGy/MBq | Estimated Absorbed Dose of Organ, Average: Ovaries [3]: 4.29E-02 mGy/MBq | Estimated Absorbed Dose of Organ, Average: Pancreas [3]: 1.65E-02 mGy/MBq | Estimated Absorbed Dose of Organ, Average: Red Marrow [3]: 1.64E-02 mGy/MBq | Estimated Absorbed Dose of Organ, Average: Skin [3]: 1.14E-02 mGy/MBq | Estimated Absorbed Dose of Organ, Average: Small Intestine [3]: 2.68E-02 mGy/MBq | Estimated Absorbed Dose of Organ, Average: Spleen [3]: 1.55E-02 mGy/MBq | Estimated Absorbed Dose of Organ, Average: Stomach Wall [3]: 1.66E-02 mGy/MBq | Estimated Absorbed Dose of Organ, Average: Thymus [3]: 1.38E-02 mGy/MBq | Estimated Absorbed Dose of Organ, Average: Thyroid [3]: 1.24E-02 mGy/MBq | Estimated Absorbed Dose of Organ, Average: Total Body [3]: 1.72E-02 mGy/MBq | Estimated Absorbed Dose of Organ, Average: ULI Wall [3]: 2.24E-02 mGy/MBq | Estimated Absorbed Dose of Organ, Average: Urinary Bladder Wall [3]: 4.48E-01 ‡ mGy/MBq | Estimated Absorbed Dose of Organ, Average: Uterus [3]: 4.34E-02 mGy/MBq | Effective Dose (mSv/MBq), Average ± SD [4]: 2.62E-02 mSv/MBq | Estimated Absorbed Dose of Organ, Average: Adrenals [4]: 1.23E-02 mGy/MBq | Estimated Absorbed Dose of Organ, Average: Brain [4]: 8.73E-03 mGy/MBq | Estimated Absorbed Dose of Organ, Average: Breasts [4]: 9.14E-03 mGy/MBq | Estimated Absorbed Dose of Organ, Average: Gallbladder Wall [4]: 1.25E-02 mGy/MBq | Estimated Absorbed Dose of Organ, Average: Heart Wall [4]: 3.82E-02 mGy/MBq | Estimated Absorbed Dose of Organ, Average: Kidneys [4]: 1.43E-02 § mGy/MBq | Estimated Absorbed Dose of Organ, Average: Liver [4]: 7.98E-03 mGy/MBq | Estimated Absorbed Dose of Organ, Average: Lungs [4]: 1.48E-02 mGy/MBq | Estimated Absorbed Dose of Organ, Average: Muscle [4]: 1.13E-02 mGy/MBq | Estimated Absorbed Dose of Organ, Average: Osteogenic Cells [4]: 1.67E-02 mGy/MBq | Estimated Absorbed Dose of Organ, Average: Pancreas [4]: 1.31E-02 mGy/MBq | Estimated Absorbed Dose of Organ, Average: Red Marrow [4]: 1.11E-02 mGy/MBq | Estimated Absorbed Dose of Organ, Average: Skin [4]: 8.54E-03 mGy/MBq | Estimated Absorbed Dose of Organ, Average: Small Intestine [4]: 1.55E-02 mGy/MBq | Estimated Absorbed Dose of Organ, Average: Spleen [4]: 1.20E-02 mGy/MBq | Estimated Absorbed Dose of Organ, Average: Stomach Wall [4]: 1.26E-02 mGy/MBq | Estimated Absorbed Dose of Organ, Average: Testes [4]: 1.22E-02 mGy/MBq | Estimated Absorbed Dose of Organ, Average: Thymus [4]: 1.17E-02 mGy/MBq | Estimated Absorbed Dose of Organ, Average: Thyroid [4]: 1.09E-02 ± 1.11E-03 mGy/MBq | Estimated Absorbed Dose of Organ, Average: Total Body [4]: 1.17E-02 mGy/MBq | Estimated Absorbed Dose of Organ, Average: ULI Wall [4]: 1.39E-02 mGy/MBq | Estimated Absorbed Dose of Organ, Average: Urinary Bladder Wall [4]: 8.88E-02 ‡ mGy/MBq | Effective Dose (mSv/MBq), Average ± SD [5]: 6.24E-02 mSv/MBq | Estimated Absorbed Dose of Organ, Average ± SD: Adrenals [5]: 9.39E-03 mGy/MBq | Estimated Absorbed Dose of Organ, Average ± SD: Brain [5]: 5.73E-03 mGy/MBq | Estimated Absorbed Dose of Organ, Average ± SD: Breasts [5]: 5.93E-03 mGy/MBq | Estimated Absorbed Dose of Organ, Average ± SD: Gallbladder Wall [5]: 1.04E-02 mGy/MBq | Estimated Absorbed Dose of Organ, Average ± SD: Heart Wall [5]: 2.60E-02 mGy/MBq | Estimated Absorbed Dose of Organ, Average ± SD: Kidneys [5]: 3.58E-02 § mGy/MBq | Estimated Absorbed Dose of Organ, Average ± SD: LLI Wall [5]: 1.92E-01 ‡ mGy/MBq | Estimated Absorbed Dose of Organ, Average ± SD: Liver [5]: 9.19E-03 mGy/MBq | Estimated Absorbed Dose of Organ, Average ± SD: Lungs [5]: 6.86E-03 mGy/MBq | Estimated Absorbed Dose of Organ, Average ± SD: Muscle [5]: 1.15E-02 mGy/MBq | Estimated Absorbed Dose of Organ, Average ± SD: Osteogenic Cells [5]: 1.26E-02 mGy/MBq | Estimated Absorbed Dose of Organ, Average ± SD: Pancreas [5]: 9.88E-03 mGy/MBq | Estimated Absorbed Dose of Organ, Average ± SD: Red Marrow [5]: 1.08E-02 mGy/MBq | Estimated Absorbed Dose of Organ, Average ± SD: Skin [5]: 6.97E-03 mGy/MBq | Estimated Absorbed Dose of Organ, Average ± SD: Small Intestine [5]: 1.91E-02 mGy/MBq | Estimated Absorbed Dose of Organ, Average ± SD: Spleen [5]: 9.14E-03 mGy/MBq | Estimated Absorbed Dose of Organ, Average ± SD: Stomach Wall [5]: 9.73E-03 mGy/MBq | Estimated Absorbed Dose of Organ, Average ± SD: Testes [5]: 1.82E-02 mGy/MBq | Estimated Absorbed Dose of Organ, Average ± SD: Thymus [5]: 7.56E-03 mGy/MBq | Estimated Absorbed Dose of Organ, Average ± SD: Thyroid [5]: 6.91E-03 mGy/MBq | Estimated Absorbed Dose of Organ, Average ± SD: Total Body [5]: 1.19E-02 mGy/MBq | Estimated Absorbed Dose of Organ, Average ± SD: ULI Wall [5]: 1.49E-02 mGy/MBq | Estimated Absorbed Dose of Organ, Average ± SD: Urinary Bladder Wall [5]: 5.53E-01 † mGy/MBq
Structure (SMILES): O=C[C@H]([18F])[C@@H](O)[C@H](O)[C@H](O)CO [FDG, 2-deoxy-2-[^18F]fluoro-D-glucose]
